Laboratory results reported in patent publication US11203576B2, “Aurora kinase and Janus kinase inhibitors for prevention of graft versus host disease” (H. LEE MOFFITT CANCER CENTER AND RESEARCH INSTITUTE, INC., priority 2016, dated 2021).
Where two headings read alike, the source gives them in different places.

Legend:
[1] = test system: T-cells allostimulated by dendritic cells (DC); assay: Allogeneic mixed leukocyte reaction (alloMLR), T-cell proliferation; format: cell-based, human
Method: Bulk donor T-cells were allostimulated with allogeneic DCs (DC:T-cell ratio of 1:30) as previously described (OneBlood, Tampa, Fla.)(15, 16, 20). […] As indicated, alloMLRs consisting of Treg depleted, naïve CD4^+ T-cells (Miltenyi Biotec Inc, San Diego, Calif.) were treated with a combination of ARL67156 (CD39 inhibitor, 125 μM, Sigma), AJI, or DMSO on day 0 to study the role of CD39 and ATP in this system. T-cell proliferation was measured on day 5 by a colorimetric assay (CellTiter 96 Aqueous One Solution Cell Proliferation Assay [MTS]; or CellTiter Blue, Promega, Madison, Wis.). Absorbance/optical density (OD) was analyzed at 490 nm or 590 nm, respectively. Proliferation (%)=(OD treated alloMLR−OD T-cells alone)/(OD DMSO alloMLR−OD T-cells alone)×100.

RORgammaT = RORgammaT expression by RT-PCR; format: cell-based, human; details: TH17-polarizing medium, 5 days, vs DMSO
iTreg = iTreg differentiation and potency; format: cell-based, human; details: for iTreg:allo Tconv ratio: 5-day MLRs; for iTreg:allo Tconv ratio / iTreg differentiation / absolute numbers of iTregs: vs DMSO; for iTreg differentiation / absolute numbers of iTregs: Treg-depleted naïve CD4+ T-cells, allogeneic DCs, 5 days; for suppressive capacity of iTregs generated in presence of inhibitor: standard suppression assay, no additional inhibitor added
Method: On day 5, iTregs were isolated and washed to minimize drug carry-over as reported. The T cells were harvested and surface-stained on day 5 for CD3, CD4, CD25, and CD127, followed by fixation and permeabilization (eBioscience) and Foxp3 staining. The absolute number of iTreg was calculated by flow cytometry using CountBright beads (Life Technologies). The purified iTregs were titrated against alloMLRs consisting of responder CD4+CD25− T cells (5×10^4) from the iTregs donor and fresh allogeneic DCs (1.6×10^3) to determine suppressive potency. T cell proliferation was determined by pulsing cells with [^3H]thymidine ([…]). Surface expression of CD39 and LAG3 was evaluated on the iTregs. iTregs production of CTLA4 was assessed by intracellular staining after a 5-hour treatment of PMA/ionomycin, with GolgiStop added during the last 4 hours of incubation. iTregs synthesis of IL-10 and TGF-β (Quansys Biosciences) was quantified from supernatants using multiplex cytokine assays after PMA/ionomycin stimulation.

TH17 = assay: IL-17 ELISPOT of DC-stimulated CD4+ T cells; format: cell-based, human; details: DC-stimulated purified CD4+ T cells
Method: Naïve CD4^+ T cells were purified and allostimulated (DC/T cell ratio of 1:30) as reported (B. C. Betts et al., CD4^+ T cell STAT3 phosphorylation precedes acute GVHD, and subsequent TH17 tissue invasion correlates with GVHD severity and therapeutic response. J. Leukocyte Biol. (2015)). Alisertib ([…]), TG101348 (350 nM), both alisertib and TG101348, AJI-214 (750 nM), AJI-100 (750 nM), or DMSO control was added once on day 0. Medium was supplemented with IL-6 (1×10^5 IU/mL), TGF-β (4 ng/mL; R&D Systems), and anti-IFN-γ monoclonal antibody ([…]; eBioscience) to polarize TH17. After 5 days, the T cells were harvested, washed, and then plated at 35,000 cells per well in an IL-17 ELISPOT plate (R&DSystems). The CD4^+ T cells were stimulated with PMA/ionomycin, and the ELISPOT assay was performed according to the manufacturer's instructions.

[2] = test system: xenogeneic GVHD (NSG mice transplanted with human PBMCs); assay: Xenogeneic GVHD model; format: in vivo; details: alisertib 30 mg/kg daily, TG101348 45 mg/kg twice a day, oral gavage day 0 to +14
Source text: After transplantation and treatment with either AJI-100 or vehicle control, human T cells were isolated from recipient mouse spleens at day +14, stained for pH3Ser^10 or pSTAT3 (+IL-6 stimulation), and analyzed as described.
NOD scid gamma (NSG) mice (male or female, 6-24 weeks old) were purchased from Jackson Laboratory (Bar Harbor, Me., USA) and raised per an IACUC-approved protocol in adherence to the NIH Guide for the Care and Use of Laboratory Animals. Mice received either (i) alisertib (30 mg/kg daily), TG101348 (45 mg/kg twice a day), a combination of alisertib and TG101348, or vehicle (methylcellulose) by oral gavage or (ii) AJI-100 (50 mg/kg daily) or vehicle (50% polyethylene glycol, 15% 2-hydroxypropyl-b-cyclodextrin, and 10% DMSO in sterile saline) ip from day 0 to day +14.
Mice were monitored for GVHD clinical scores (K. R. Cooke et al., An experimental model of idiopathic pneumonia syndrome after bone marrow transplantation: I. The roles of minor H antigens and endotoxin. Blood 88, 3230 (1996)), weight, and premoribund status. As indicated, mice were euthanized on day +14 to study recipient spleen Tconv, Tregs, TH1, TH17, B cells, and T-cell signal transduction. Human CD4^+ Treg (CD25+, CD127^−, Foxp3^+), Tconv(CD25^+, CD127^+), TH1, TH17, and CD19^+ B cells residing in recipient spleens were quantified by flow cytometry. T-cell pH3 ser10 and PSTAT3 were evaluated by flow cytometry. IL-17 ELISPOTs were performed using isolated human T cells from recipient mouse spleen as described above. Tissue samples were prepared, stained (Ventana Medical Systems, Tucson, Ariz.), and imaged (Vista, Calif., USA) to identify human T-cells as previously described. All vertebrate animal work was IACUC-approved.

GVHD = details: mouse, in vivo; cited from earlier work
[3] = test system: H3 Ser10 (target of Aurora); assay: H3 Ser10 phosphorylation in DC-allostimulated T-cells (flow cytometry); format: cell-based, human; details: 5-day allogeneic DC stimulation; AJI 750 nM, alisertib 1.75 μM, TG101348 350 nM
Method: After 5 days, T cells were then harvested and directly fixed (Cytofix, BD Biosciences) for 10 min at 37° C. After washing with phosphate-buffered saline, the T cells were permeabilized with icecold methanol (90%, v/v) for at least 20 min at -20° C. The cells were stained for expression of CD3 and pH[…].

pSTAT5 (Y694) = assay: IL-2-induced STAT5 phosphorylation in T-cells; format: cell-based, human; details: vs DMSO or unstimulated controls
Method: As indicated, T cells were serum-starved in RPMI treated with DMSO diluent control, alisertib, TG101348, a combination of both inhibitors, AJI-214, or AJI-100 for 4 hours. IL-6-induced pSTAT3 or IL-2-induced pSTAT5 (Y694) was measured by flow cytometry.

STAT3 (target of JAK2) = assay: STAT3 phosphorylation in T-cells (flow cytometry); format: cell-based, human; details: in vitro, DC- or IL-6-stimulated, vs DMSO
Method: IL-6-induced pSTAT3 or IL-2-induced pSTAT5 (Y694) was measured by flow cytometry.

Bioavailability = details: in vivo
CD39 on iTreg = assay: ATP hydrolysis assay; format: cell-based, human; details: ARL67156 125 μM
Method: iTregs generated in the presence of AJI-241 (750 nM) or DMSO were plated in V-bottom 96 well plates in serum free media at a concentration of 75,000 cells per 100 μL. ARL67156 (125 μM) was added or not as indicated. A fixed dose of ATP (50 μM) was added to the cells and incubated at 37° C. for 45 minutes. ATP consumption was measured by a luminescence assay per the manufacturer's instructions (Promega, CellTiter-Glo Luminescent Cell Viability Assay) and read by a spectrofluorimeter. Percent consumption was calculated as (luminescence of test supernatant/luminescence of 50 μM ATP cell-free control supernatant)×100.

COc1cc(Nc2ncc3c(n2)-c2ccc(Cl)cc2C(c2c(F)cccc2OC)=NC3)ccc1C(=O)O [alisertib]
inhibition at 0.625 µM ([1]; Homo sapiens, T-cell, alisertib 625 nM, read-out: inhibition of proliferative response of T-cells in alloMLRs): 32.5%
IC50 ([1]; Homo sapiens, T-cell, alisertib alone (Study 2 text), read-out: median inhibitory concentration (IC50), T cells in alloMLRs): 10 µM
IC50 ([1]; Homo sapiens, T-cell, alisertib alone, read-out: IC50, proliferative response of T-cells in alloMLRs): 10 µM
IC50 ([1]; Homo sapiens, TG101348 and alisertib added together at fixed ratio 1:5, read-out: IC50 of the combination, alisertib concentration): 1.75 µM
RORgammaT expression in alloresponder CD4+ T-cells (RORgammaT): no effect
iTreg:allo Tconv ratio (iTreg): incrementally larger Treg:allo Tconv ratios
iTreg differentiation / absolute numbers of iTregs (iTreg): less absolute numbers of iTregs and allo Tconv
suppressive capacity of iTregs generated in presence of inhibitor (iTreg): superior suppressive capacity
TH17 (IL-17 ELISPOT) (TH17): no effect
median survival [2]: 41 days
onset of GVHD in mice (GVHD): significantly delayed the onset of GVHD
phosphorylation of histone 3 serine 10 (pH3 Ser10) in T-cells [3]: only inhibited pH3Ser^10
IL-2-induced STAT5 activation/phosphorylation in T-cells (pSTAT5 (Y694)): remained intact

Cc1cnc(Nc2ccc(OCCN3CCCC3)cc2)nc1Nc1cccc(S(=O)(=O)NC(C)(C)C)c1 [TG101348]
IC50 ([1]; Homo sapiens, TG101348 and alisertib added together at fixed ratio 1:5, read-out: IC50 of the combination, TG101348 concentration): 0.35 µM
concentrations reducing alloreactive T-cell proliferation ([1]; alloMLR): ≥ 350 nM
RORgammaT expression in alloresponder CD4+ T-cells (RORgammaT): significantly decreases
iTreg:allo Tconv ratio (iTreg): incrementally larger Treg:allo Tconv ratios
iTreg differentiation / absolute numbers of iTregs (iTreg): less absolute numbers of iTregs and allo Tconv
suppressive capacity of iTregs generated in presence of inhibitor (iTreg): improved iTreg function compared with DMSO
STAT3 (pSTAT3 Y705) phosphorylation in T-cells (STAT3 (target of JAK2)): only inhibited pSTAT3
IL-2-induced STAT5 activation/phosphorylation in T-cells (pSTAT5 (Y694)): remained intact

NC(=O)c1ccc(Nc2ncc(F)c(Nc3ccccc3Cl)n2)cc1 [bisanilinopyrimidine (I)]
bioavailability (Bioavailability): limited bioavailability

CCN(CC)c1ncnc2c1ncn2[C@@H]1O[C@H](COP(=O)(O)OP(=O)(O)C(Br)(Br)P(=O)(O)O)[C@@H](O)[C@H]1O [ARL67156]
T-cell inhibition by bisanilinopyrimidine (I)/AJI-214 on CD39 blockade ([1]; natural Treg-depleted CD4+ alloMLR, ARL67156 added): significantly weakened
hydrolysis of ATP by AJI-treated iTregs on CD39 blockade (CD39 on iTreg): significantly impaired
